These results are taken from ChEMBL document CHEMBL1201862, “PubChem BioAssay data set” (2004).

Test systems include 786-0; COLO 205; HT-29; Hs-578T; KM12; LOX IMVI; M14; MCF7; MDA-MB-231; MDA-MB-435; Malme-3M; NCI-H23; OVCAR-5; RXF 393; SK-OV-3; SNB-75; SW-620; T47D; TK-10; UO-31.
What all share (assay): growth of human tumour cells (NCI), 48 h

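Compound exposure: 48 hours, 5 concentrations, 96-well plates. At the GI50, growth is halved.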 Calls of active or inactive are those of the source. No stated cut-off is given here; in the data, active = GI50 up to about 1.1 µM and inactive = higher.

In the case of `O=C1N(c2ccccc2)C(=S)/C(=C/c2ccc(Cl)cc2)N1c1ccc(Cl)cc1`, the GI50 in the experiment with 786-0 is 23.2 µM (inactive); in the experiment on COLO 205, 27.5 µM (inactive); in the experiment with HT-29, 59.3 µM (inactive); in the experiment with Hs-578T, 27 µM (inactive); in the experiment on KM12 it was 52 µM (inactive); with LOX IMVI it was 22.2 µM (inactive). The GI50 in the experiment on M14 was 61.9 µM (inactive); with MCF7, 81.1 µM (inactive); in the experiment with MDA-MB-231 it was 27 µM (inactive); in the experiment on MDA-MB-435, 35.6 µM (inactive); with Malme-3M, 20.6 µM (inactive); in the experiment with NCI-H23 it was 44.3 µM (inactive). Moreover, the GI50 in the experiment with OVCAR-5 was 78.3 µM (inactive); in the experiment on RXF 393 it was 33.2 µM (inactive); in the experiment on SK-OV-3 it was 27.1 µM (inactive); in the experiment with SNB-75 it was 12.6 µM (inactive); in the experiment with SW-620, 36.1 µM (inactive); with T47D, 63.8 µM (inactive). In addition, the GI50 in the experiment on TK-10 is 26.7 µM (inactive); with UO-31, 28.5 µM (inactive).
For the molecule `CC(=O)[C@]1(C)[C@H](C)O[C@](C)(CO)[C@H]1O[Si](C)(C)c1ccccc1`, the GI50 with 786-0 is 81.5 µM (inactive); in the experiment on COLO 205, 56.6 µM (inactive); with HT-29 it was 78.7 µM (inactive); in the experiment with Hs-578T, 45 µM (inactive); with KM12, 47.6 µM (inactive); with LOX IMVI, 20.4 µM (inactive). Besides, the GI50 with M14 is 83 µM (inactive); with MCF7, 31.8 µM (inactive); in the experiment on MDA-MB-231 it was 45.5 µM (inactive); with MDA-MB-435 it was 50.1 µM (inactive); in the experiment with Malme-3M, 15.4 µM (inactive); in the experiment on NCI-H23, 20.5 µM (inactive). In addition, the GI50 with OVCAR-5 was > 100 µM (inactive); in the experiment on RXF 393 it was 14.1 µM (inactive); with SK-OV-3, > 100 µM (inactive); in the experiment with SNB-75 it was > 100 µM (inactive); in the experiment on SW-620, 73.6 µM (inactive); in the experiment with T47D it was 17.8 µM (inactive). In addition, the GI50 is 82.4 µM (inactive) with TK-10 and 28.8 µM (inactive) with UO-31.
In the case of `C=CC(C)CCC(C/C=C(\C)CCC=C(C)C)C(=C)CCCC(C)C` (stereo not given), the GI50 with 786-0, in the experiment with COLO 205, in the experiment with HT-29, in the experiment with Hs-578T, in the experiment with KM12 and with LOX IMVI was > 100 µM (inactive) in each case. The GI50 in the experiment with M14, in the experiment with MCF7, in the experiment with MDA-MB-231, with MDA-MB-435, in the experiment on Malme-3M and in the experiment on NCI-H23 was > 100 µM (inactive) throughout. Also, the GI50 with OVCAR-5, in the experiment with RXF 393, in the experiment on SK-OV-3, with SNB-75, in the experiment on SW-620 and in the experiment on T47D was > 100 µM (inactive) each time. Besides, the GI50 with TK-10 and with UO-31 was > 100 µM (inactive) each time.
As for `O=C(O)C12C3CCC(CC3)C1(C(=O)O)C1CCC2C1` (stereo not given), the GI50 in the experiment on 786-0, in the experiment on COLO 205, in the experiment with HT-29, in the experiment on Hs-578T, with KM12 and with LOX IMVI was > 100 µM (inactive) in each case. For the same molecule, the GI50 with M14, with MCF7, in the experiment on MDA-MB-231, in the experiment with MDA-MB-435, in the experiment with Malme-3M and in the experiment on NCI-H23 was > 100 µM (inactive) in each case. Besides, the GI50 with OVCAR-5, in the experiment on RXF 393, with SK-OV-3, in the experiment with SNB-75, in the experiment on SW-620 and in the experiment with T47D was > 100 µM (inactive) throughout. For the same molecule, the GI50 in the experiment on TK-10 and with UO-31 was > 100 µM (inactive) in each case.
For the molecule `Fc1cc(C2=C[C@H](c3ccc4c(c3)OCO4)NC(=S)N2)c(Cl)cc1Cl`, the GI50 is 39.9 µM (inactive) with 786-0; 20.9 µM (inactive) with COLO 205; 27.9 µM (inactive) in the experiment with HT-29; 70 µM (inactive) in the experiment on Hs-578T; 38 µM (inactive) with KM12; 37.2 µM (inactive) in the experiment on LOX IMVI. For the same molecule, the GI50 in the experiment with M14 was 40.4 µM (inactive); with MCF7, 32.2 µM (inactive); in the experiment on MDA-MB-231, 23.8 µM (inactive); with MDA-MB-435, 34.6 µM (inactive); in the experiment on Malme-3M, 30.7 µM (inactive); in the experiment on NCI-H23 it was 60.8 µM (inactive). Besides, the GI50 is 44.1 µM (inactive) in the experiment on OVCAR-5; 23 µM (inactive) in the experiment with RXF 393; 57 µM (inactive) with SK-OV-3; 20.8 µM (inactive) in the experiment on SNB-75; 36 µM (inactive) with SW-620; 20.2 µM (inactive) with T47D. In addition, the GI50 with TK-10 is 28.8 µM (inactive); in the experiment with UO-31, 39.2 µM (inactive).
`COc1ccc(/C=C2\CCC(CNc3ccc(OC)cc3)C2=O)cc1` (stereo not given): the GI50 in the experiment with 786-0 was 9.51 µM (inactive); in the experiment with COLO 205, 15.7 µM (inactive); with HT-29 it was 14.3 µM (inactive); in the experiment on Hs-578T, 35.4 µM (inactive); in the experiment with KM12, 10.5 µM (inactive); in the experiment on LOX IMVI, 12.9 µM (inactive). Besides, the GI50 was 16.1 µM (inactive) in the experiment on M14; 2.61 µM (inactive) in the experiment on MCF7; 17.8 µM (inactive) in the experiment with MDA-MB-231; 20.8 µM (inactive) in the experiment with MDA-MB-435; 22.6 µM (inactive) in the experiment on Malme-3M; 14.6 µM (inactive) in the experiment on NCI-H23. Moreover, the GI50 in the experiment with OVCAR-5 was 18.5 µM (inactive); with RXF 393 it was 16.2 µM (inactive); in the experiment with SK-OV-3, > 100 µM (inactive); in the experiment with SNB-75 it was 31.1 µM (inactive); in the experiment with SW-620 it was 3.5 µM (inactive); in the experiment with T47D, 18.8 µM (inactive). Moreover, the figures for the GI50 with TK-10 and in the experiment on UO-31 were 15.6 µM (inactive) and 17.9 µM (inactive), respectively.
Regarding `O=C1O/C(=C(/Cl)c2c3ccccc3cc3ccccc23)c2ccccc21`, the GI50 with 786-0 was 14.4 µM (inactive); in the experiment on COLO 205, 23.2 µM (inactive); in the experiment on HT-29 it was 13.1 µM (inactive); with Hs-578T it was 23 µM (inactive); in the experiment on KM12, 4.02 µM (inactive); in the experiment with LOX IMVI, 3.33 µM (inactive). Besides, the GI50 with M14 was 21.4 µM (inactive); in the experiment with MCF7, 32.1 µM (inactive); in the experiment on MDA-MB-231, 19.9 µM (inactive); with MDA-MB-435 it was 22.2 µM (inactive); with Malme-3M, 48.1 µM (inactive); in the experiment with NCI-H23 it was 26.1 µM (inactive). The GI50 is 33.2 µM (inactive) in the experiment on OVCAR-5; 33.3 µM (inactive) in the experiment with RXF 393; 69.5 µM (inactive) in the experiment on SK-OV-3; 4.75 µM (inactive) in the experiment on SNB-75; 30.7 µM (inactive) with SW-620; 80.5 µM (inactive) in the experiment on T47D. Besides, the GI50 was 32.8 µM (inactive) in the experiment with TK-10 and 44.2 µM (inactive) in the experiment with UO-31.
With `CC1(C)CN=C(Nc2ccc(Cl)cc2)S1`, the GI50 was > 100 µM (inactive) with 786-0; > 100 µM (inactive) in the experiment with COLO 205; 43.1 µM (inactive) in the experiment with HT-29; > 100 µM (inactive) with Hs-578T; 90.4 µM (inactive) with KM12; 78.3 µM (inactive) in the experiment on LOX IMVI. Also, the GI50 in the experiment on M14 is > 100 µM (inactive); with MCF7 it was > 100 µM (inactive); with MDA-MB-231, > 100 µM (inactive); in the experiment on MDA-MB-435 it was > 100 µM (inactive); with Malme-3M, > 100 µM (inactive); with NCI-H23 it was 74.6 µM (inactive). The GI50 in the experiment with OVCAR-5 is > 100 µM (inactive); with RXF 393 it was > 100 µM (inactive); in the experiment with SK-OV-3 it was > 100 µM (inactive); with SNB-75 it was 70.8 µM (inactive); in the experiment on SW-620, > 100 µM (inactive); with T47D, 42.9 µM (inactive). Moreover, the values for the GI50 in the experiment with TK-10 and in the experiment with UO-31 were 65.8 µM (inactive) and 37.2 µM (inactive), respectively.
On to `CC(C)(C)CN1[C@@H]2CCCC[C@H]2N(CC(C)(C)C)P1(=O)C(O)/C=C/c1ccccc1` (stereo not given in full), for which the GI50 was 39.4 µM (inactive) in the experiment with 786-0; 17.3 µM (inactive) in the experiment on COLO 205; 31.5 µM (inactive) in the experiment on HT-29; 29.9 µM (inactive) with Hs-578T; 33.7 µM (inactive) in the experiment on KM12; 18.7 µM (inactive) with LOX IMVI. The GI50 in the experiment with M14 was 27.1 µM (inactive); in the experiment with MCF7 it was 28.6 µM (inactive); with MDA-MB-231, 45.9 µM (inactive); in the experiment with MDA-MB-435 it was 42.1 µM (inactive); in the experiment on Malme-3M, 38.5 µM (inactive); with NCI-H23, 56.6 µM (inactive). Moreover, the GI50 in the experiment on OVCAR-5 was 50.4 µM (inactive); in the experiment with RXF 393 it was 30.3 µM (inactive); in the experiment with SK-OV-3, 51.8 µM (inactive); in the experiment on SNB-75, 21.3 µM (inactive); in the experiment with SW-620, 34.2 µM (inactive); in the experiment with T47D, 26.1 µM (inactive). Further, the GI50 in the experiment with TK-10 was 50.4 µM (inactive); with UO-31, 29.5 µM (inactive).
As to `Cc1nc2ccccc2n1Cc1nnc(-c2ccccc2)o1`, the GI50 was 38.7 µM (inactive) with 786-0; 74.6 µM (inactive) with COLO 205; 52.5 µM (inactive) in the experiment with HT-29; > 100 µM (inactive) in the experiment with Hs-578T; 20.6 µM (inactive) with KM12; 25.1 µM (inactive) in the experiment on LOX IMVI. The GI50 was > 100 µM (inactive) with M14; 63.1 µM (inactive) in the experiment on MCF7; > 100 µM (inactive) in the experiment with MDA-MB-231; 0.104 µM (active) with MDA-MB-435; > 100 µM (inactive) in the experiment on Malme-3M; > 100 µM (inactive) in the experiment on NCI-H23. The GI50 was > 100 µM (inactive) in the experiment on OVCAR-5; 35.9 µM (inactive) in the experiment on RXF 393; > 100 µM (inactive) with SK-OV-3; 46.3 µM (inactive) with SNB-75; 90.2 µM (inactive) in the experiment with SW-620; 57.8 µM (inactive) in the experiment on T47D. For the same molecule, the GI50 in the experiment with TK-10 and in the experiment on UO-31 was > 100 µM (inactive) each time.
